# Marks after values point to notes of the source that are not given here. Strand notation (5' to 3'): a small letter for the sugar, then the base; units joined by * are phosphorothioate-linked, units joined directly phosphodiester-linked; [ ] holds rarer units or linkages, { } end groups; capitals alone tell only the bases. k = constrained ethyl (cEt); [5mC] = 5-methylcytosine; d = 2'-deoxy (DNA)
# Tested on: Yap1 mRNA
# Test: Antisense inhibition of human Yap1 in A-431 cells by cEt gapmers, single dose (Example 4, RTS4814)
# Format: cell-based
# Description: Modified oligonucleotides were designed to target a Yap1 nucleic acid and were tested for their effect on Yap1 mRNA level in vitro. The modified oligonucleotides were tested in a series of experiments that had similar culture conditions. Cultured A-431 cells at a density of 5,000 cells per well were treated using free uptake with 2,000 nM of modified oligonucleotide. After a treatment period of approximately 48 hours, RNA was isolated from the cells and Yap1 mRNA levels were measured by quantitative real-time RTPCR. Human primer probe set RTS4814 was used to measure mRNA levels. Yap1 mRNA levels were normalized to total RNA content, as measured by RIBOGREEN®. Results are presented in the tables below as percent control of the amount of Yap1 mRNA relative to untreated control cells (% UTC). The modified oligonucleotides with percent control values marked with an asterisk (*) target the amplicon region of the primer probe set. Additional assays may be used to measure the potency and efficacy of the modified oligonucleotides targeting the amplicon region.
# The newly designed modified oligonucleotides in the Tables below were designed as 3-10-3 cEt gapmers. The gapmers are 16 nucleosides in length, wherein the central gap segment comprises of ten 2′-deoxynucleosides and is flanked by wing segments on the 5′ direction and the 3′ direction comprising three nucleosides each. Each nucleoside in the 5′ wing segment and each nucleoside in the 3′ wing segment has a cEt sugar modification. The internucleoside linkages throughout each gapmer are phosphorothioate (P═S) linkages. All cytosine residues throughout each gapmer are 5-methylcytosines.
# “Start site” indicates the 5′-most nucleoside to which the gapmer is targeted in the human gene sequence. “Stop site” indicates the 3′-most nucleoside to which the gapmer is targeted human gene sequence. […] Activity of the modified oligonucleotide may be defined in a different experiment.
# [1] = Yap1 mRNA remaining as percent of untreated control, 3-10-3 cEt gapmers, A-431 cells, Table 37
# [2] = Table 17, A-431 cells, 5,000 cells per well, free uptake, 2,000 nM, approximately 48 hours, RTS4814, normalized to RIBOGREEN, Yap1 mRNA relative to untreated control cells
# [3] = Table 15, A-431 cells, 5,000 cells per well, free uptake, 2,000 nM, approximately 48 hours, RTS4814, normalized to RIBOGREEN, Yap1 mRNA relative to untreated control, * = targets amplicon region of primer probe set
# [4] = Table 16, A-431 cells, 5,000 cells per well, free uptake, 2,000 nM, approximately 48 hours, RTS4814, normalized to RIBOGREEN, Yap1 mRNA relative to untreated control cells
# [5] = Table 14, A-431 cells, 5,000 cells per well, free uptake, 2,000 nM, approximately 48 hours, RTS4814, normalized to RIBOGREEN, Yap1 mRNA relative to untreated control, * = targets amplicon region of primer probe set
# [6] = Yap1 mRNA remaining as percent of untreated control, 3-10-3 cEt gapmers, A-431 cells, Table 36
substance,measurement,setting,value
1075831 (kT*kA*kT*dT*dA*dG*d[5mC]*d[5mC]*dT*dT*d[5mC]*dT*dA*kA*k[5mC]*k[5mC]; antisense) [compound 1075831],YAP1 (% UTC),[1],59 % UTC
1075447 (antisense k[5mC]*kA*k[5mC]*dT*dA*dT*dA*dA*dA*dT*d[5mC]*d[5mC]*dT*k[5mC]*kA*kT) [compound 1075447],YAP1 (% UTC),[1],96 % UTC
1076067 (kG*k[5mC]*kA*dT*dA*dT*dA*dA*dG*dA*dT*dG*dT*kT*kT*kG; antisense) [Compound 1076067],YAP1 (% UTC),[2],4 % UTC
1075425 (antisense kA*kT*kT*dA*dT*dT*dA*dA*dT*d[5mC]*d[5mC]*dT*dG*kT*k[5mC]*k[5mC]) [Compound 1075425],YAP1 (% UTC),[3],26 % UTC
1074819 (kA*kA*kG*d[5mC]*dA*d[5mC]*dT*dG*dA*dA*dT*dA*dT*kT*kG*k[5mC]; antisense) [Compound 1074819],YAP1 (% UTC),[2],33 % UTC
1074690 (antisense k[5mC]*k[5mC]*kT*d[5mC]*d[5mC]*d[5mC]*d[5mC]*d[5mC]*dT*dA*dA*dG*d[5mC]*kT*kA*kA) [Compound 1074690],YAP1 (% UTC),[4],81 % UTC
1076512 (antisense k[5mC]*kA*kT*dA*dA*dA*d[5mC]*d[5mC]*dA*dT*dT*dA*dA*kG*kT*kG) [Compound 1076512],YAP1 (% UTC),[5],65 % UTC
1074531 (k[5mC]*kA*k[5mC]*dT*dA*dA*dA*d[5mC]*dT*dA*d[5mC]*dT*dT*k[5mC]*kA*kA; antisense) [Compound 1074531],YAP1 (% UTC),[2],73 % UTC
1075158 (k[5mC]*kG*kG*d[5mC]*dA*dA*dA*dA*dA*d[5mC]*dA*dA*dA*kA*kT*k[5mC]; antisense) [compound 1075158],YAP1 (% UTC),[6],76 % UTC
1075840 (k[5mC]*k[5mC]*kT*dA*dA*dA*dA*dT*dA*dG*dG*dA*dA*kT*kG*k[5mC]; antisense) [Compound 1075840],YAP1 (% UTC),[5],89 % UTC
1074583 (DNA kG*kT*kA*dA*dA*d[5mC]*d[5mC]*dA*d[5mC]*dT*dA*dT*dA*kA*kA*kG; antisense) [compound 1074583],YAP1 (% UTC),[1],30 % UTC
1076163 (kG*kA*kT*dA*dT*dA*dA*dG*dT*dT*dA*d[5mC]*d[5mC]*kA*kA*kT; antisense) [Compound 1076163],YAP1 (% UTC),[2],16 % UTC
1075872 (k[5mC]*kA*kA*dT*dT*dA*dT*dG*dA*d[5mC]*dA*dA*dA*k[5mC]*kA*kG; antisense) [Compound 1075872],YAP1 (% UTC),[5],21 % UTC
1075350 (antisense kG*kA*kT*dT*dA*dA*dA*dG*d[5mC]*dT*d[5mC]*dA*dT*kT*kG*kA) [compound 1075350],YAP1 (% UTC),[6],62 % UTC
1074915 (antisense kA*kG*kT*dT*dA*d[5mC]*dA*dT*d[5mC]*d[5mC]*d[5mC]*dG*dA*kG*kT*kG) [Compound 1074915],YAP1 (% UTC),[2],65 % UTC
1075746 (kG*kA*kT*dT*dA*dA*d[5mC]*d[5mC]*d[5mC]*dA*dG*dT*dA*kG*kA*kG; antisense) [Compound 1075746],YAP1 (% UTC),[4],28 % UTC
1075553 (kT*kG*kA*dT*dT*dA*dT*dA*dA*d[5mC]*dA*dT*dG*k[5mC]*kT*kG; antisense) [Compound 1075553],YAP1 (% UTC),[3],77 % UTC
1074784 (k[5mC]*k[5mC]*kA*dT*dA*dA*dG*dT*dA*dG*dA*dT*d[5mC]*kT*kA*kA; antisense) [Compound 1074784],YAP1 (% UTC),[5],25 % UTC
1074979 (antisense kA*kT*kT*dG*d[5mC]*d[5mC]*dA*dG*dT*dT*d[5mC]*dT*dT*kG*kT*kT) [Compound 1074979],YAP1 (% UTC),[2],32 % UTC
1074423 (k[5mC]*kA*kA*dA*d[5mC]*dA*dG*dG*d[5mC]*dT*d[5mC]*dA*d[5mC]*kT*kT*k[5mC]; antisense) [compound 1074423],YAP1 (% UTC),[1],4* % UTC
1075424 (antisense kT*kT*kA*dT*dT*dA*dA*dT*d[5mC]*d[5mC]*dT*dG*dT*k[5mC]*k[5mC]*kA) [Compound 1075424],YAP1 (% UTC),[5],18 % UTC
1075127 (kG*k[5mC]*kT*dA*dA*dA*dT*dT*dA*dT*dG*d[5mC]*dT*kA*kT*kT; antisense) [compound 1075127],YAP1 (% UTC),[1],79 % UTC
1074883 (kG*kG*k[5mC]*dT*dA*dA*d[5mC]*dT*d[5mC]*d[5mC]*dT*dG*d[5mC]*k[5mC]*kG*kA; antisense) [compound 1074883],YAP1 (% UTC),"table after Table 37, headed TABLE 32 (gapmers targeting SEQ ID NO.: 3), A-431 cells, free uptake, 2,000 nM, approximately 48 hours, RTS4814",107 % UTC
1074497 (k[5mC]*kA*kA*dT*dA*dA*d[5mC]*d[5mC]*dA*dT*d[5mC]*d[5mC]*d[5mC]*kA*kA*kG; antisense) [Compound 1074497],YAP1 (% UTC),[3],26 % UTC
1075138 (antisense kA*kA*kT*dA*dA*dT*dA*dG*dA*dT*dA*d[5mC]*dT*kG*k[5mC]*k[5mC]) [Compound 1075138],YAP1 (% UTC),[4],4 % UTC
1074626 (antisense k[5mC]*kT*kG*dT*dT*dA*dT*dG*dA*dA*d[5mC]*d[5mC]*d[5mC]*kT*kT*kG) [Compound 1074626],YAP1 (% UTC),[4],5 % UTC
1074199 (antisense kG*k[5mC]*k[5mC]*dG*dG*dT*dT*dG*d[5mC]*d[5mC]*d[5mC]*dG*dG*kG*kT*k[5mC]) [compound 1074199],YAP1 (% UTC),[1],101 % UTC
1074114 (kG*kA*kA*d[5mC]*dT*dT*dT*dT*dT*d[5mC]*d[5mC]*d[5mC]*dT*k[5mC]*k[5mC]*kA; antisense) [Compound 1074114],YAP1 (% UTC),[4],30 % UTC
1075671 (kG*kA*kT*dA*dT*dA*dT*dA*dT*dG*dA*dT*dG*kG*kA*k[5mC]; antisense) [compound 1075671],YAP1 (% UTC),[1],37 % UTC
1076544 (antisense kG*kA*k[5mC]*d[5mC]*dA*dA*d[5mC]*d[5mC]*dT*d[5mC]*d[5mC]*d[5mC]*d[5mC]*kT*kT*kG) [Compound 1076544],YAP1 (% UTC),[5],89 % UTC
1076193 (kT*kT*kA*dA*dT*dA*d[5mC]*dA*d[5mC]*dA*dG*dG*dT*kT*k[5mC]*k[5mC]; antisense) [Compound 1076193],YAP1 (% UTC),[3],29 % UTC
1075202 (antisense kA*kA*kT*dT*dA*dT*dA*dT*dA*dA*dG*dG*d[5mC]*kT*kG*kT) [Compound 1075202],YAP1 (% UTC),[4],26 % UTC
1074595 (antisense kT*kA*kG*dA*dA*dG*dT*dA*dG*dG*dA*dG*d[5mC]*kA*kA*kG) [Compound 1074595],YAP1 (% UTC),[2],4 % UTC
1076086 (kA*kA*k[5mC]*dT*dA*dA*dT*dA*dG*dG*d[5mC]*d[5mC]*dA*kT*k[5mC]*kT; antisense) [compound 1076086],YAP1 (% UTC),[6],31 % UTC
1074147 (antisense kA*kG*kA*dA*dG*d[5mC]*dG*dG*d[5mC]*dG*dA*d[5mC]*dG*kG*k[5mC]*kT) [Compound 1074147],YAP1 (% UTC),[2],23 % UTC
1075776 (kA*kT*kG*dT*dG*dA*dT*dA*dT*dG*dG*dA*dT*kT*k[5mC]*kT; antisense) [Compound 1075776],YAP1 (% UTC),[5],10 % UTC
1074851 (antisense kA*kT*kT*dG*dT*dT*dA*dT*dG*dA*dT*dA*dG*kG*k[5mC]*kA) [Compound 1074851],YAP1 (% UTC),[2],6 % UTC
1076470 (kG*kA*kT*dA*dA*dA*dG*dA*dG*dG*dT*dT*dA*kA*k[5mC]*kA; antisense) [compound 1076470],YAP1 (% UTC),[6],34 % UTC
1074338 (antisense kG*kG*kA*dT*dT*dT*dT*dG*dA*dG*dT*d[5mC]*d[5mC]*k[5mC]*kA*k[5mC]) [Compound 1074338],YAP1 (% UTC),[4],77 % UTC
1074370 (antisense kT*kT*kG*dA*dT*dA*dG*dT*dA*dT*d[5mC]*dA*d[5mC]*k[5mC]*kT*kG) [Compound 1074370],YAP1 (% UTC),[4],8 % UTC
1076418 (kT*kA*kT*dA*dA*dT*dA*dA*d[5mC]*d[5mC]*d[5mC]*dA*dT*kT*kG*kT; antisense) [Compound 1076418],YAP1 (% UTC),[4],63 % UTC
1076322 (kA*kT*kT*dT*dA*d[5mC]*dA*dA*dG*dT*dG*dA*dG*k[5mC]*kA*k[5mC]; antisense) [Compound 1076322],YAP1 (% UTC),[4],21 % UTC
1076192 (k[5mC]*kT*kA*d[5mC]*dA*dA*d[5mC]*d[5mC]*dT*dG*dG*dA*d[5mC]*kT*kT*kT; antisense) [Compound 1076192],YAP1 (% UTC),[5],34 % UTC
1075712 (kG*kA*k[5mC]*dG*d[5mC]*dG*dA*dA*dA*dT*dA*d[5mC]*dT*kT*kA*k[5mC]; antisense) [Compound 1075712],YAP1 (% UTC),[5],7 % UTC

# Source: patent publication US11214803B2, “Modulators of YAP1 expression” (Ionis Pharmaceuticals, Inc., priority 2019, dated 2022)
